# Measurements from patent EP1658093B1, “USE OF A MIXTURE CONTAINING OXYTOCIN AND TESTOSTERON OR ESTRADIOL FOR TREATING DISTURBANCES OF PSYCHOSOCIAL EXPERIENCES AND BEHAVIOUR” (Beier, Klaus M., priority 2003, dated 2007).
# Assays:
# [1] = Double-blind study: subjective state descriptions by questionnaire; type: in vivo; settings: 4 Probanden
# Protocol: (§1) Untersucht wurden 4 Probanden, zwei heterosexuelle Paare mit jeweils mehr als 20jähriger Partnerschaftsdauer. In einer Doppelblindstudie wurden Oxytocin gegen Placebo, die Kombinationen Oxytocin/Estradiol an Männern und Oxytocin/Testosteron an Frauen gegen Placebo und gegen den "Austausch von Intimität" untersucht.
# (§2) Den Männern wurde Oxytocin nasal als Spraystoß (1 Spraystoß Syntocinon® = 4 I.E. Oxytocin) und Estradiol dermal als Membranpflaster(2 mg Estradiol mit der Freisetzungsrate von ca. […]; Estraderm TTS® 25) verabreicht.
# (§3) Den Frauen wurde Oxytocin nasal als Spraystoß (1 Spraystoß Syntocinon® = 4 I.E. Oxytocin) und Testosteron dermal als Membranpflaster (12,2 mg Testosteron mit einer Freisetzungsrate von ca. 0,1 mg/h; Androderm® 2,5 mg) verabreicht.
# (§4) Die Verabreichung von Oxytocin erfolgte nasal und doppelblind (Placebo und Verum) in zwei Dosierungen, 1 Sprühstoß = 4 I.E. Oxytocin und zwei Sprühstöße = 8 I.E. Oxytocin, jeweils fortlaufend im Abstand von einer Stunde. Oxytocin wurde sowohl vor als auch nach der Anlage des Membranpflasters verabreicht. Insgesamt wurden 4 nasale Interventionen vor und nach der zusätzlichen Sexualhormongabe durchgeführt, wobei das Verum 2 mal in unterschiedlichen Dosierungen gegeben wurde. Die ersten nasalen Interventionen erfolgten nach 2 Stunden Wirkzeit der Sexualhormone. […]
# [2] = Double-blind study: psychophysiological reaction patterns (SMARD-Watch), dynamic cross-correlation analysis; type: in vivo; settings: mean over all 4 Probanden; Oxytocin nasal 4 or 8 I.E.; sex hormone as dermal patch (Estradiol in men, Testosteron in women); low coefficient = balanced sympathetic/parasympathetic regulation
# Protocol: as §1, §2, §3, §4
substance,measurement,setting,value
Oxytocin,subjektive Zustandsbeschreibungen (Selbstwahrnehmung),[1],stärker in Richtung Entspannung tendierte
same,Kreuzkorrelationskoeffizient,[2],"0,51"
